US12681018B2, “Photoactive fluorescent compounds and use thereof for labeling of proteins” (EIKON THERAPEUTICS, INC., priority 2021, dated 2026)
In brackets after ≈: the same amount, converted by molar mass. Read-outs that look alike come from different tables or passages of the source.

How the values were obtained:
[1] = Kinetic solubility in PBS at 7.4; assay type: physicochemical; details: PBS buffer, aqueous buffer, kinetic from dmso stock, pH 7.4, 500 μM final concentration, 1.5 hours at room temperature, average of three runs, read-out: Ksol
Protocol: 190 μL of buffer solution (PBS, pH 7.4) was added to wells on a 96-well Millipore Solubility filter plate. Then 10 μL of test compound in DMSO (10 mM) were added to give final concentration of 500 μM.
The filter plate was shaken for 1.5 hours at room temperature in the dark and samples were filtered via a vacuum system into a fresh 96-well plate. Samples were diluted to 500 μM (highest concentration) in DMSO and further diluted (1:10) to provide three-point calibration curve. Absorbance was measured using HPLC/UV analysis at 220 nm, 254 nm, and 280 nm.

[2] = tested on: histone H2B-HaloTag fusion; experiment: Halo-protein specificity (Specificity Factor), single-molecule imaging in U2OS cells; assay type: cell-based; details: ratio of slope (spots vs dye concentration, 1-200 nM, 45 minutes) relative to PA-JF549
Protocol: The following day the cells were incubated with PA-JF549 or Examples 1-4 at a range of concentrations between 200 nM and 1 nM for 45 minutes. […] Samples were imaged on a Nikon Ti2 microscope with fiber-optic coupled illumination source. […] Images were collected every 10 msec for 5 seconds per field of view and pulses of ascending intensity 405 nm light (between 0 and 12 mW at the coverslip) were used to photoactivate dye molecules.
For each dye compound, a linear regression was used to determine the relationship between the concentration of dye compound and the number of fluorescence spots detected on the microscope, where in WT cells the ideal dye would have no correlation between compound concentration and number of slots measured. The Specificity Factor was calculated as the ratio of the slope of the compound in question relative to the slope calculated for PA-JF549 and is shown in Table 3 below.

[3] = biological target: T1, Estrogen Receptor-HaloTag (ER-Halo) fusion (Rhodococcus rhodochrous, UniProt P0A3G2, A155T/A167V/A172T/A224E/C128F/C176G/D78G/E160K/E257K/H272N/K175M/K195N/L47V/L88M/N227D/P291S/S58T/T264A/Y273L/Y87F); assay type: cell-based; details: tracks in WT U2OS cells, ratio with PA-JF549 in the numerator, 100 nM, 1 hr
T1 construct: expressed in transfected cells; host or cells: U2OS
T1 sequence (P03372 whole entry, the tested form may be a part): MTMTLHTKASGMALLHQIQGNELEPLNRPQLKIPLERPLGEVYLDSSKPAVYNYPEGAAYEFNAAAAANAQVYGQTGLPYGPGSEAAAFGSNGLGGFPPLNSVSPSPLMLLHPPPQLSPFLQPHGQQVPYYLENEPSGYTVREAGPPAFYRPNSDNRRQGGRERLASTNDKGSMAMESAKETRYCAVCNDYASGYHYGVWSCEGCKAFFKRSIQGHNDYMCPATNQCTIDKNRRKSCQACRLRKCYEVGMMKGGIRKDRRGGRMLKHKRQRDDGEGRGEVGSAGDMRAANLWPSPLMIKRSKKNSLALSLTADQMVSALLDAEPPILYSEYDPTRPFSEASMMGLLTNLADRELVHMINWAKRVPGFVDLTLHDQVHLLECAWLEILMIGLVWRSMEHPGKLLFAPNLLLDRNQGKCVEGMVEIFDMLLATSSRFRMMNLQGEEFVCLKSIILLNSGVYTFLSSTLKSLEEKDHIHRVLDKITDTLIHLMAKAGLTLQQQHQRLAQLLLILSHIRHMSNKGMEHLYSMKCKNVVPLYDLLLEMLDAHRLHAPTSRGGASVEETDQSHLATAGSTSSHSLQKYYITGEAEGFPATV
T1 sequence (P0A3G2 other isoform, or with tags, fused parts or gaps with the stated changes): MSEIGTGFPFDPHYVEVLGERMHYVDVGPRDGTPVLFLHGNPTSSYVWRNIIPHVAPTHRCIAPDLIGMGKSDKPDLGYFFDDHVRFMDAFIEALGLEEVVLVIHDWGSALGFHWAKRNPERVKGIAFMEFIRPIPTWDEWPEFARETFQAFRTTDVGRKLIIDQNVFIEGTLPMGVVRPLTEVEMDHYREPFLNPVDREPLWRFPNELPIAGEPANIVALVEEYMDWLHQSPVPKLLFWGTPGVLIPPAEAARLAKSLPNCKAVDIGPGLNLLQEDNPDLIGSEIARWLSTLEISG
Protocol: Using the methods described in Tables 4a and 4b above, labelling specificity of the compound of Examples 1-24 was measured and compared to PA-JF549. U2OS cells wild type or expressing ER-HaloTag fusion were incubated with PA-JF549 or Examples 1-24 for 1 hr. […] Labeling specificity, as measured by the fold reduction in nonspecific labeling of WT cells, was calculated by number of tracks measured in WT cells for Examples 1-24 compared to the number of tracks in WT cells for PA-JF549, expressed as the ratio with PA-JF549 in the numerator.

Compound | solubility kinetic at 1.5 h [1] | Specificity Factor [2] | Fold reduction in nonspecific labeling ([3]; Table 4a) | Fold reduction in nonspecific labeling ([3]; Table 4b)
COC(=O)C1CN(c2ccc3c(c2)Oc2cc(N4CC(C(=O)OC)C4)ccc2C32C(=[N+]=[N-])C(=O)c3ccc(C(=O)NCCOCCOCCCCCCCl)cc32)C1 [Example 1, dimethyl 1,1′-(6-((2-(2-((6-chlorohexyl)oxy)ethoxy)ethyl)carbamoyl)-2-diazo-3-oxo-2,3-dihydrospiro[indene-1,9′-xanthene]-3′,6′-diyl)bis(azetidine-3-carboxylate)] | 58.4 µM (≈ 46.7 µg/mL) | 2.66 | >10 | >10
[N-]=[N+]=C1C(=O)c2ccc(C(=O)NCCOCCOCCCCCCCl)cc2C12c1ccc(N3CC(C(=O)O)C3)cc1Oc1cc(N3CC(C(=O)O)C3)ccc12 [Example 2, 1,1′-(6-((2-(2-((6-chlorohexyl)oxy)ethoxy)ethyl)carbamoyl)-2-diazo-3-oxo-2,3-dihydrospiro[indene-1,9′-xanthene]-3′,6′-diyl)bis(azetidine-3-carboxylic acid)] | 481 µM (≈ 371 µg/mL) | <1 | >10 | >10
COC[C@H]1CCN1c1ccc2c(c1)Oc1cc(N3CC[C@@H]3COC)ccc1C21C(=[N+]=[N-])C(=O)c2ccc(C(=O)NCCOCCOCCCCCCCl)cc21 [Example 3, N-(2-(2-((6-chlorohexyl)oxy)ethoxy)ethyl)-2-diazo-3′,6′-bis((R)-2-(methoxymethyl)azetidin-1-yl)-3-oxo-2,3-dihydrospiro[indene-1,9′-xanthene]-6-carboxamide] | 39.5 µM (≈ 30.5 µg/mL) | 2.07 | 1-5 | 1-5
CN(C)C(=O)C1CN(c2ccc3c(c2)Oc2cc(N4CC(C(=O)N(C)C)C4)ccc2C32C(=[N+]=[N-])C(=O)c3ccc(C(=O)NCCOCCOCCCCCCCl)cc32)C1 [Example 4, 1,1′-(6-((2-(2-((6-chlorohexyl)oxy)ethoxy)ethyl)carbamoyl)-2-diazo-3-oxo-2,3-dihydrospiro[indene-1,9′-xanthene]-3′,6′-diyl)bis(N,N-dimethylazetidine-3-carboxamide)] | 3.69 µM (≈ 3.05 µg/mL) | 23.8 | >10 | >10
[N-]=[N+]=C1C(=O)c2ccc(NC(=O)CCOCCOCCCCCCCl)cc2C12c1ccc(N3CCC3)cc1Oc1cc(N3CCC3)ccc12 [Example 22, 3-(2-((6-chlorohexyl)oxy)ethoxy)-N-(3′,6′-di(azetidin-1-yl)-2-diazo-3-oxo-2,3-dihydrospiro[indene-1,9′-xanthen]-6-yl)propanamide] | – | – | – | 5-10
[N-]=[N+]=C1C(=O)c2ccc(CCCCOCCOCCCCCCCl)cc2C12c1ccc(N3CCC3)cc1Oc1cc(N3CCC3)ccc12 [Example 24, 3′,6′-di(azetidin-1-yl)-6-(4-(2-((6-chlorohexyl)oxy)ethoxy)butyl)-2-diazospiro[indene-1,9′-xanthen]-3(2H)-one] | – | – | – | 1-5
(E)-3′,6′-di(azetidin-1-yl)-6-(4-(2-((6-chlorohexyl)oxy)ethoxy)but-1-en-1-yl)-2-diazospiro[indene-1,9′-xanthen]-3(2H)-one and (Z)-3′,6′-di(azetidin-1-yl)-6-(4-(2-((6-chlorohexyl)oxy)ethoxy)but-1-en-1-yl)-2-diazospiro[indene-1,9′-xanthen]-3(2H)-one [Example 23] | – | – | – | >10
